Assay results as given in patent US20250257075A1, “MACROCYCLIC INHIBITORS OF KRAS FOR THE TREATMENT OF CANCER” (Hoffmann-La Roche Inc., priority 2022, published 2025).

Assays:
[1] = system: NCI-H358 cells (KRAS G12C); experiment: Cell viability assay, G12C; assay type: cell-based, human; conditions: Homo sapiens; NCI-H358, 72 hrs, Cell Counting Kit-8
Experimental: (§1) The purpose of this cellular assay was to determine the effects of test compounds on the proliferation of human cancer cell lines NCI-H358 (ATCC-CRL5807) cells, AGS (ATCC-CRL-1739) cells, SW620 (ATCC-CCL-227) over a 3-day treatment period by quantifying the amount of NADPH present at endpoint using Cell Counting Kit-8.
(§2) Cells were seeded at 5,000 cells/well (NCI-H358), 2,000 cells/well (AGS) 2,000 cells/well (SW620) in 96-well assay plates (Corning-3699) and incubated overnight. On the day of the assay, diluted compounds were then added in a final concentration of 0.5% DMSO. After 72 hrs incubation, a tenth of the volume of cell counting kit 8 (Dnjindo-CK04) was added into each well. Read the signal (OD450 minus OD650) using EnVision after 2 hrs incubation. IC50 was determined by fitting a 4-parameter sigmoidal concentration response model.

AGS cells (KRAS G12D) = experiment: Cell viability assay, G12D; assay type: cell-based, human; conditions: Homo sapiens, 72 hrs, Cell Counting Kit-8
Experimental: as §1, §2

SW620 cells (KRAS G12V) = experiment: Cell viability assay, G12V; assay type: cell-based, human; conditions: Homo sapiens, SW-620; SW620, 72 hrs, Cell Counting Kit-8
Experimental: as §1, §2

KRAS G12C-BRAF complex [2] = target: T1, KRAS G12C-BRAF complex (Homo sapiens, UniProt P01116+P62937, G12C); experiment: KRAS G12C-BRAF NanoBit assay in HEK293 cells; assay type: cell-based; conditions: HEK293 stable cell pool, 3 hours of incubation
T1 construct: expressed in transfected cells
Experimental: This assay is to measure the ability of tested compounds in disruption of the KRAS G12C-BRAF complex at the cellular level, we established the NanoBit cellular assay in mammalian HEK293 (ATCC) cells. HEK293 cells were grown and maintained using DMEM medium (Thermo Fisher Scientific) with 10% fetal bovine serum and 1% penicillin/streptomycin. Both KRAS G12C and BRAF RBD were cloned into the NanoBit vectors ([…] vectors system, Promega) with the orientations SmBit-KRAS G12C and BRAF RBD-LgBit, respectively, and co-transfected into HEK293 cells. Cells were then selected with 100 μg/mL Hygromycin B (10687010, Thermo Fisher) and Blasticidin (5 μg/mL) for 4 weeks to get the stable cell pool. On the day of the assay, 75 nL of compound solution was presented in a 384-well assay plate as a 16-point 3-fold dilution starting from a final concentration of 30 μM in DMSO. Then cells were seeded at 10,000 cells/25 μL/well in a 384-well plate. After 3 hours of incubation, 6 μL of volume of Nano-Glo® Live Cell Substrate (Promega) was added into each well. Monitor luminescence using ultra384 model in Envision at 20 minutes. Compounds that facilitate disruption of the KRAS G12C-BRAF RBD complex were identified as those eliciting a decrease of luminescence relative to DMSO control wells.

KRAS G12C-BRAF complex [3] = target: T1, KRAS G12C-BRAF complex; experiment: KRAS-BRAF with CYPA (500 nM) interaction assay (TR-FRET), G12C; assay type: biochemical; conditions: 3 hours
Experimental: (§3) Kras-BRAF with CYPA (500 nM) Interaction Assay In this example, TR-FRET was also used to measure the compound or compound-CYPA dependent disruption of the KRAS G12C-BRAF complex. This protocol was also used to measure disruption of KRAS G12D or KRAS G12V binding to BRAF by a compound of the invention, respectively. […] TR-FRET signal was read on a […] microplate reader (Ex320 nm, Em 665/615 nm). Compounds that facilitate disruption of the KRAS-BRAF complex were identified as those eliciting a decrease in the TR-FRET ratio relative to DMSO control wells.

[4] = target: KRAS G12D binding to BRAF (Homo sapiens, UniProt P01116+P62937, G12D); experiment: KRAS-BRAF with CYPA (500 nM) interaction assay (TR-FRET), G12D; assay type: biochemical; conditions: 3 hours
Experimental: as §3

[5] = target: KRAS G12V binding to BRAF (Homo sapiens, UniProt P01116+P62937, G12V); experiment: KRAS-BRAF with CYPA (500 nM) interaction assay (TR-FRET), G12V; assay type: biochemical; conditions: 3 hours
Experimental: as §3

[6] = system: phosphorylation of ERK, KRAS G12C in NCI-H358 cells; experiment: pERK inhibition assay, G12C; assay type: cell-based, human; conditions: Homo sapiens; NCI-H358, 4 hours of incubation
Experimental: (§4) This assay is to measure the ability of test compounds in inhibiting the phosphorylation of ERK, the downstream signaling of KRAS G12C in NCI-H358 cells, KRAS G12D in AGS cells, and KRAS G12V in SW620. NCI-H358 (ATCC-CRL5807) cells, AGS (ATCC-CRL-1739) cells, SW620 (ATCC-CCL-227) cells were all grown and maintained using RPMI-1640 medium (Thermo Fisher Scientific) with 10% fetal bovine serum and 1% penicillin/streptomycin. On the day prior to compound addition, cells were plated in tissue culture-treated 96 well plates (Corning-3699) at a density of 30,000 cell/well, 20,000 cell/well, 30,000 cell/well for NCI-H358, AGS and SW620 respectively, and allowed for attachment overnight. Diluted compounds were then added in a final concentration of 0.5% DMSO. After 4 hours of incubation, the medium was removed, 100 μL of 4% formaldehyde was added, and the assay plates were incubated at room temperature for 20 minutes. The plates were then washed once with phosphate buffered saline (PBS), and permeabilized with 100 μL of chilled methanol for 10 minutes. Non-specific antibody binding to the plates was blocked using 50 μL 1×BSA blocking buffer (Thermo-37520, 10-fold dilution by Phosphate-Buffered Saline Tween (PBST) for at least 1 hour at room temperature.
(§5) The amount of phosphor-ERK was determined using an antibody specific for phosphorylated form of ERK. Primary antibody (pERK, CST-4370, Cell Signaling Technology) was diluted 1:300 in blocking buffer, with 50 μL aliquoted to each well, and incubated overnight at 4° C. Cells was washed five times for 5 minutes with PBST. Secondary antibody (HRP-linked anti-rabbit IgG, CST-7074, Cell Signaling Technology) was diluted 1:1000 in blocking buffer, and 50 μL was added to each well and incubated 1-2 hrs at room temperature. Cells was washed 5 times for 5 minutes with PBST, 100 μL TMB ELISA substrate (abcam-ab171523) were added and gently shake for 20 minutes. 50 μL stop solution (abcam-ab171529) were added, and then read the signal (OD450) by EnVision.
(§6) IC50 was determined by fitting a 4-parameter sigmoidal concentration response model.

[7] = system: phosphorylation of ERK, KRAS G12D in AGS cells; experiment: pERK inhibition assay, G12D; assay type: cell-based, human; conditions: Homo sapiens, 4 hours of incubation
Experimental: as §4, §5, §6

[8] = system: phosphorylation of ERK, KRAS G12V in SW620; experiment: pERK inhibition assay, G12V; assay type: cell-based, human; conditions: Homo sapiens, SW-620; SW620, 4 hours of incubation
Experimental: as §4, §5, §6

KRAS G12V binding to BRAF, sequence (P01116 1-188 isoform P01116-2 G12V): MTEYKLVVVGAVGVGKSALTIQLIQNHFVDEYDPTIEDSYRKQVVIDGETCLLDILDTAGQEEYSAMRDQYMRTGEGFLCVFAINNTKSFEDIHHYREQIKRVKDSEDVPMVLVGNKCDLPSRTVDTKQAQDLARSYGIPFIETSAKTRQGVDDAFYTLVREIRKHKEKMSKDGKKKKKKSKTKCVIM
KRAS G12V binding to BRAF, sequence (P62937 whole entry): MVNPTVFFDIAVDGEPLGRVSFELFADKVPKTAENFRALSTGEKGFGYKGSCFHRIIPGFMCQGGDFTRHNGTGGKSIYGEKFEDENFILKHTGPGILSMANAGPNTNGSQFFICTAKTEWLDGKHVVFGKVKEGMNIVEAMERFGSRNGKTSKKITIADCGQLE
T1 sequence (P01116 1-188 isoform P01116-2 G12C): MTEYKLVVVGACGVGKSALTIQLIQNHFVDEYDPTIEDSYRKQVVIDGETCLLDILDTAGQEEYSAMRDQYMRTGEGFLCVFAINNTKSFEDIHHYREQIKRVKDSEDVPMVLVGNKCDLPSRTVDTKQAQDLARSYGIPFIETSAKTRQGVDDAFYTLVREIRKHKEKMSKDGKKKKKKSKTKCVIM
T1 sequence (P62937 whole entry): as the sequence (P62937 whole entry) above
KRAS G12D binding to BRAF, sequence (P01116 1-188 isoform P01116-2 G12D): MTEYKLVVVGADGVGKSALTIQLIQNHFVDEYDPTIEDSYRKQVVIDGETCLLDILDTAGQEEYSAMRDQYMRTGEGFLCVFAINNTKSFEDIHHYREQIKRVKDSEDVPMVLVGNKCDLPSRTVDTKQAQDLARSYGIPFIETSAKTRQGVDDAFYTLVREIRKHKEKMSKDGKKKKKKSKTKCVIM
KRAS G12D binding to BRAF, sequence (P62937 whole entry): as the sequence (P62937 whole entry) above

SMILES | IC50 [1] [µM] | IC50 (AGS cells (KRAS G12D)) [µM] | IC50 (SW620 cells (KRAS G12V)) [µM] | IC50 (KRAS G12C-BRAF complex [2]) [µM] | IC50 (KRAS G12C-BRAF complex [3]) [µM] | IC50 [4] [µM] | IC50 [5] [µM] | IC50 [6] [µM] | IC50 [7] [µM] | IC50 [8] [µM]
CO[C@@H](C)c1ncc(N2CCN(C)CC2)cc1-c1c2c3cc(c(F)cc3n1CC(F)(F)F)-c1csc(n1)C[C@H](NC(=O)[C@H](C(C)C)N(C)C(=O)[C@H]1C[C@H](C#CC(F)(F)F)C1)C(=O)N1CCC[C@H](N1)C(=O)OCC(C)(C)C2 (atropisomer, axis not shown; (M)) [Example 1, trans-N-[(1S)-1-[[(7S,13S)-24-fluoro-(20M)-20-[2-[(1S)-1-methoxyethyl]-5-(4-methylpiperazin-1-yl)-3-pyridyl]-17,17-dimethyl-8,14-dioxo-21-(2,2,2-trifluoroethyl)-15-oxa-4-thia-9,21,27,28-tetrazapentacyclo[17.5.2.1^2,5.1^9,13.0^22,26]octacosa-1(25),2,5(28),19,22(26),23-hexaen-7-yl]carbamoyl]-2-methyl-propyl]-N-methyl-3-(3,3,3-trifluoroprop-1-ynyl)cyclobutanecarboxamide] | 0.027 | > 10 | 0.04 | 0.081 | 3.35 | > 10 | > 10 | 0.035 | 1.1 | 0.063
CO[C@@H](C)c1ncc(N2CCN(C)CC2)cc1-c1c2c3cc(c(F)cc3n1CC(F)(F)F)-c1csc(n1)C[C@H](NC(=O)[C@H](C(C)C)N(C)C(=O)N1CC(C#CC(F)(F)F)C1)C(=O)N1CCC[C@H](N1)C(=O)OCC(C)(C)C2 (atropisomer, axis not shown; (M)) [Example 2, N-[(1S)-1-[[(7S,13S)-24-fluoro-(20M)-20-[2-[(1S)-1-methoxyethyl]-5-(4-methylpiperazin-1-yl)-3-pyridyl]-17,17-dimethyl-8,14-dioxo-21-(2,2,2-trifluoroethyl)-15-oxa-4-thia-9,21,27,28-tetrazapentacyclo[17.5.2.1^2,5.1^9,13.0^22,26]octacosa-1(25),2,5(28),19,22(26),23-hexaen-7-yl]carbamoyl]-2-methyl-propyl]-N-methyl-3-(3,3,3-trifluoroprop-1-ynyl)azetidine-1-carboxamide] | 0.002 | 0.02 | 0.01 | 0.018 | 1.79 | > 10 | 6.74 | 0.013 | – | 0.007
CO[C@@H](C)c1ncc(N2CCN(C)CC2)cc1-c1c2c3cc(c(F)cc3n1CC(F)(F)F)-c1csc(n1)C[C@H](NC(=O)[C@H](C(C)C)N(C)C(=O)c1ccc(C#CC(F)(F)F)cc1)C(=O)N1CCC[C@H](N1)C(=O)OCC(C)(C)C2 (atropisomer, axis not shown; (M)) [Example 4, N-[(1S)-1-[[(7S,13S)-24-fluoro-(20M)-20-[2-[(1S)-1-methoxyethyl]-5-(4-methylpiperazin-1-yl)-3-pyridyl]-17,17-dimethyl-8,14-dioxo-21-(2,2,2-trifluoroethyl)-15-oxa-4-thia-9,21,27,28-tetrazapentacyclo[17.5.2.1^2,5.1^9,13.0^22,26]octacosa-1(25),2,5(28),19,22(26),23-hexaen-7-yl]carbamoyl]-2-methyl-propyl]-N-methyl-4-(3,3,3-trifluoroprop-1-ynyl)benzamide] | 0.123 | 0.781 | 0.041 | 0.219 | 0.43 | 0.142 | > 10 | 0.063 | 0.509 | 0.006

Next, values leading:

IC50 [1] [µM] | IC50 (AGS cells (KRAS G12D)) [µM] | IC50 (SW620 cells (KRAS G12V)) [µM] | IC50 (KRAS G12C-BRAF complex [2]) [µM] | IC50 (KRAS G12C-BRAF complex [3]) [µM] | IC50 [4] [µM] | IC50 [5] [µM] | IC50 [6] [µM] | IC50 [7] [µM] | IC50 [8] [µM] | SMILES
< 0.001 | 2.84 | 4.73 | 0.029 | 0.021 | > 10 | > 10 | 0.002 | – | 0.008 | CCn1c(-c2cc(N3CCN(C)CC3)cnc2[C@H](C)OC)c2c3cc(c(F)cc31)-c1csc(n1)C[C@H](NC(=O)[C@H](C(C)C)N(C)C(=O)[C@H]1C[C@@H](C#CC(F)(F)F)C1)C(=O)N1CCC[C@H](N1)C(=O)OCC(C)(C)C2 (atropisomer, axis not shown; (M)) [Example 6, cis-N-[(1S)-1-[[(7S,13S)-21-ethyl-24-fluoro-(20M)-20-[2-[(1S)-1-methoxyethyl]-5-(4-methylpiperazin-1-yl)-3-pyridyl]-17,17-dimethyl-8,14-dioxo-15-oxa-4-thia-9,21,27,28-tetrazapentacyclo[17.5.2.1^2,5.1^9,13.0^22,26]octacosa-1(25),2,5(28),19,22(26),23-hexaen-7-yl]carbamoyl]-2-methyl-propyl]-N-methyl-3-(3,3,3-trifluoroprop-1-ynyl)cyclobutanecarboxamide]
0.023 | > 5 | > 5 | 0.335 | > 10 | > 10 | > 10 | 1.1 | – | 0.099 | CO[C@@H](C)c1ncc(N2CCN(CC(F)(F)F)CC2)cc1-c1c2c3cc(c(F)cc3n1CC(F)(F)F)-c1csc(n1)C[C@H](NC(=O)[C@H](C(C)C)N(C)C(=O)[C@H]1C[C@@H](C#CC(F)(F)F)C1)C(=O)N1CCC[C@H](N1)C(=O)OCC(C)(C)C2 (atropisomer, axis not shown; (M)) [Example 7, cis-N-[(1S)-1-[[(7S,13S)-24-fluoro-(20M)-20-[2-[(1S)-1-methoxyethyl]-5-[4-(2,2,2-trifluoroethyl)piperazin-1-yl]-3-pyridyl]-17,17-dimethyl-8,14-dioxo-21-(2,2,2-trifluoroethyl)-15-oxa-4-thia-9,21,27,28-tetrazapentacyclo[17.5.2.1^2,5.1^9,13.0^22,26]octacosa-1(25),2,5(28),19,22(26),23-hexaen-7-yl]carbamoyl]-2-methyl-propyl]-N-methyl-3-(3,3,3-trifluoroprop-1-ynyl)cyclobutanecarboxamide]
